Reference: patent EP0500137A1, “1,2,4-Triazolo[1,5-a]pyrimidine derivatives, a process for preparing them as well as medicaments containing them and the use of them” (EGIS GYOGYSZERGYAR, priority 1991, dated 1992)

Test system: gastric acid secretion
Assay: gastric acid secretion inhibiting effect, method of Shay (pylorus bound, free acid titrated)
Assay type: in vivo, Rats (Wistar breed)
Settings: given 3 hours before the operation, free acid determined 4 hours after the operation, inhibition in relation to the control
Experimental: Rats of both sexes (Wistar breed, weighing 180-240 g) were fastened for 48 hours. On the day of the test the pylorus of the animals was bound under ether narcosis. The test compounds were administered orally 3 hours before the operation. 4 hours after the operation the animals were anaesthetized and the stomach was removed, the content thereof was centrifuged and the amount of the free acid was determined by titration, in the presence of Töpfer reagent. The inhibition in relation to the control is calculated in percentage.

CSc1nc2nc3c(c(Cl)n2n1)CCC3 [Example 2, 5-Chloro-2-methylthio-6,7-dihydro-8H-cyclopenta[d]-1,2,4-triazolo[1,5-a]pyrimidine]
Inhibition % (Dose 30 mg/kg peroral): 73%

CSc1nc2nc3c(c(Cl)n2n1)CCCC3 [Example 6, 5-Chloro-2-methylthio-6,7,8,9-tetrahydro-1,2,4-triazolo[5,1-b]quinazoline]
Inhibition % (Dose 60 mg/kg peroral): 100%

COc1cc(C(=S)N2CCOCC2)cc(OC)c1OC [Trithiozine, 3,4,5-Trimethoxythio-benzoic acid morpholide, reference compound]
Inhibition % (Dose 400 mg/kg peroral): 63%

Clc1c2c(nc3nc(N4CCOCC4)nn13)CCCC2 [Example 12, 5-Chloro-2-morpholino-6,7,8,9-tetrahydro-1,2,4-triazolo[5,1-b]quinazoline]
Inhibition % (Dose 200 mg/kg peroral): 85%
